The target in one assay is T1, Aurora-A (Homo sapiens, UniProt O14965).
T1 sequence (O14965 1-403): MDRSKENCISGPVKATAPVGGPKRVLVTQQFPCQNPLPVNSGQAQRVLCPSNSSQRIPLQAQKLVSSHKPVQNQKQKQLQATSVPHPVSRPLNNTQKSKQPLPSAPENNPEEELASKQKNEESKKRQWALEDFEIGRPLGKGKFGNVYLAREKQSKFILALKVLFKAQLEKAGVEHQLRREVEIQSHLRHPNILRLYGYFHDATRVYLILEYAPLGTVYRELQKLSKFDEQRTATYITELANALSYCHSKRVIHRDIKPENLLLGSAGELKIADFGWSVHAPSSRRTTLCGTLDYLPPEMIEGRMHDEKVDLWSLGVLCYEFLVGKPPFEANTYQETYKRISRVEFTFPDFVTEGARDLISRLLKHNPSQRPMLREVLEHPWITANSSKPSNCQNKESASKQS
In words: Aurora-A enzyme assay (MBP-coated Flashplate, γ-33P-ATP). Type of assay: biochemical. As to conditions: IC50 range class; read-out: Inhibitor Activity vs Aurora-A. The procedure: (§1) The ability of compounds to inhibit Aurora-A activity was measured using a simple microplate assay for Aurora-A activity, also suitable for high-throughput screening. In brief, γ-^33P-ATP and Aurora-A were incubated in a myelin basic protein (MBP)-coated Flashplate® to generate a scintillation signal. The plates were formatted to contain the inhibitor, controls, positive control (staurosporin) and blanks. After incubation at 37° C. for 1 hour and a subsequent wash procedure, the plates were read on a TopCount-NXT™.
The 384-well basic Flashplate® and the γ-^33P-ATP were obtained from PerkinElmer Life Sciences, Boston, Mass.
(§2) IC50 values were determined by non-linear regression analysis, after fitting the data point results to the equation for sigmoidal dose response with variable slope (% activity against log concentration of compound), using Graphpad Prism software.
Full experimental procedure for this assay can be found within the following reference: Sun, C Journal of Biomolecular Screening 9(5), 2004, 391.

The target in a further assay is Aurora-B (Homo sapiens, UniProt Q96GD4). In words: Aurora-B enzyme assay (identical protocol as Aurora-A). Type of assay: biochemical. The conditions noted are these: IC50 range class; read-out: Inhibitor Activity vs Aurora-B. How it is done:
as §1, §2
The Aurora-B enzyme assay follows the identical protocol as Aurora-A.

The subject of another assay is HCT 116 cell line. In words: Cell inhibition assay (SRB cell viability), HCT 116. Type of assay: cell-based. As to conditions: Homo sapiens, IC50 range class, 72 h, read-out: Inhibitor Activity vs HCT 116 cell line. In short, it runs like this: (§3)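 Log-phase cells seeded at 1000 cells/well, grown 24 h, then exposed to compounds (20 uM final) for 72 h. Viability read by sulphorhodamine B staining as % inhibition versus DMSO; IC50 from eight-point sigmoidal variable-slope fit.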

A further assay relates to U937 cell line. The experiment in a line: Cell inhibition assay (SRB cell viability), U937. Type of assay: cell-based. The conditions noted are these: Homo sapiens, U-937, IC50 range class, 72 h, read-out: Inhibitor Activity vs U937 cell line. The procedure, abridged:
as §3

The next assay relates to HUT cell line. In words: Cell inhibition assay (SRB cell viability), HUT. As to conditions: IC50 range class, 72 h, read-out: Inhibitor Activity vs HUT cell line. Type of assay: cell-based. In short, it runs like this: as §3

pIC50: −log10 of the molar value.

From patent US8148531B2 (Chroma Therapeutics Ltd., priority 2005, dated 2012) come the findings set out here.

Aurora-B, sequence (Q96GD4 whole entry): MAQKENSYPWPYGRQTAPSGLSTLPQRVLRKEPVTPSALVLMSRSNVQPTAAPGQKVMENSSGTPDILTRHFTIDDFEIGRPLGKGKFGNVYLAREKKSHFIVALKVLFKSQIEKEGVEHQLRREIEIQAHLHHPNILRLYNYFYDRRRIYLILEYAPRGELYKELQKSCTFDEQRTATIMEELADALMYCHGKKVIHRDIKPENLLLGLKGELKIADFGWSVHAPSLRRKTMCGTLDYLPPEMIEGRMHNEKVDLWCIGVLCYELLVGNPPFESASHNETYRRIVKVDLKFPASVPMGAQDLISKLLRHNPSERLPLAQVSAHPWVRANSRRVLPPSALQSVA

With `COc1cc2c(Oc3ccc(NC(=O)c4ccccc4)cc3)ccnc2cc1OCC[C@H](NC(=O)OC(C)(C)C)C(=O)O` [Example 3], the pIC50 at Aurora-A and on Aurora-B was above 5.70 each time.
`COc1cc2c(Oc3ccc(NC(=O)c4ccccc4)cc3)ccnc2cc1OCC[C@H](N)C(=O)O` [Example 4, (S)-2-Amino-4-[4-(4-benzoylamino-phenoxy)-6-methoxy-quinolin-7-yloxy]-butyric acid]: the pIC50 at Aurora-A and on Aurora-B was above 5.70 throughout.
For the compound `COc1cc2c(Nc3ccc(NC(=O)c4ccccc4)cc3)ccnc2cc1OCC[C@H](N)C(=O)O` [Example 16, (S)-2-Amino-4-[4-(4-benzoylamino-phenylamino)-6-methoxy-quinolin-7-yloxy]-butyric acid], the pIC50 on Aurora-A is below 5.30; on Aurora-B it was 5.30 to 5.70.
The matching figures for `COc1cc2c(Sc3ccc(NC(=O)c4ccccc4)cc3)ccnc2cc1OCC[C@H](N)C(=O)O` [Example 19, (S)-2-Amino-4-[4-(4-benzoylamino-phenylsulfanyl)-6-methoxy-quinolin-7-yloxy]-butyric acid]: above 5.70 and above 5.70.
The matching figures for `COc1cc2c(Sc3ccc(NC(=O)C4CC4)cc3)ccnc2cc1OCC[C@H](N)C(=O)O` [Example 21, (S)-2-Amino-4-{4-[4-(cyclopropanecarbonyl-amino)-phenylsulfanyl]-6-methoxy-quinolin-7-yloxy}-butyric acid]: 5.30 to 5.70 and 5.30 to 5.70.
The corresponding values for `COc1cc2c(Nc3cnc(NC(=O)c4ccccc4)nc3)ccnc2cc1OCC[C@H](N)C(=O)O` [Example 26, (S)-2-Amino-4-[4-(2-benzoylamino-pyrimidin-5-ylamino)-6-methoxy-quinolin-7-yloxy]-butyric acid] are above 5.70 and 5.30 to 5.70.
As to `COc1cc2c(Nc3ccc(NC(=O)c4ccccc4)cc3)c(C#N)cnc2cc1OCC[C@H](N)C(=O)OC1CCCC1` [Example 27], the pIC50 was below 5.30 at Aurora-A, 5.30 to 6.00 in the assay on HCT 116 cell line, 5.30 to 6.00 with U937 cell line and above 6.00 in the assay with HUT cell line.
Turning to `COc1cc2c(Nc3ccc(NC(=O)c4ccccc4)cc3)c(C#N)cnc2cc1OCC[C@H](NC(=O)OC(C)(C)C)C(=O)OC1CCCC1` [Example 28], the pIC50 at Aurora-A is below 5.30; in the assay with HCT 116 cell line, below 5.30; in the assay on U937 cell line, above 6.00; in the assay on HUT cell line, 5.30 to 6.00.
For the compound `COc1cc2c(Oc3ccc(NC(=O)c4ccccc4)cc3)ncnc2cc1OCC[C@H](N)C(=O)O` [Example 30, (S)-2-Amino-4-[4-(4-benzoylamino-phenoxy)-6-methoxy-quinazolin-7-yloxy]-butyric acid], the pIC50 at Aurora-A and at Aurora-B was 5.30 to 5.70 throughout.
As to `COc1cc2nccc(Oc3ccc(NC(=O)c4ccccc4)cc3)c2cc1OCC[C@H](N)C(=O)O` [Example 36, (S)-2-Amino-4-[4-(4-benzoylamino-phenoxy)-7-methoxy-quinolin-6-yloxy]-butyric acid], the pIC50 at Aurora-A is above 5.70; on Aurora-B it was 5.30 to 5.70.
The matching figures for `COc1cc2c(Oc3ccc(NC(=O)c4ccccc4)cc3)ccnc2cc1OCC[C@H](NC(C)=O)C(=O)O` [Example 43, (S)-2-Acetylamino-4-[4-(4-benzoylamino-phenoxy)-6-methoxy-quinolin-7-yloxy]-butyric acid]: above 5.70 and above 5.70.
As for `COc1cc2c(Oc3ccc(NC(=O)c4ccc(C(F)(F)F)cc4)cc3)ccnc2cc1OCC[C@H](N)C(=O)OC1CCCC1` [Example 53, (S)-2-Amino-4-{6-methoxy-4-[4-(4-trifluoromethyl-benzoylamino)-phenoxy]-quinolin-7-yloxy}-butyric acid cyclopentyl ester], the pIC50 in the assay on HCT 116 cell line was above 6.00; in the assay on U937 cell line, above 6.00; on Aurora-B it was above 5.70; with HUT cell line it was above 6.00.
For the compound `COc1cc2c(Oc3ccc(NC(=O)c4ccc(C(F)(F)F)cc4)cc3)ccnc2cc1OCC[C@H](N)C(=O)O` [Example 54, (S)-2-Amino-4-{6-methoxy-4-[4-(4-trifluoromethyl-benzoylamino)-phenoxy]-quinolin-7-yloxy}-butyric acid], the pIC50 on Aurora-A and at Aurora-B was above 5.70 each time.
In the case of `COc1ccc(C(=O)Nc2ccc(Oc3ccnc4cc(OCC[C@H](N)C(=O)OC5CCCC5)c(OC)cc34)cc2)cc1` [Example 57, (S)-2-Amino-4-{6-methoxy-4-[4-(4-methoxy-benzoylamino)-phenoxy]-quinolin-7-yloxy}-butyric acid cyclopentyl ester], the pIC50 in the assay on HCT 116 cell line is 5.30 to 6.00; with U937 cell line, above 6.00; at Aurora-B, 5.30 to 5.70; in the assay with HUT cell line, 5.30 to 6.00.
With `COc1ccc(C(=O)Nc2ccc(Oc3ccnc4cc(OCC[C@H](N)C(=O)O)c(OC)cc34)cc2)cc1` [Example 58, (S)-2-Amino-4-{6-methoxy-4-[4-(4-methoxy-benzoylamino)-phenoxy]-quinolin-7-yloxy}-butyric acid], the pIC50 at Aurora-A is below 5.30; at Aurora-B, above 5.70.
`COc1cc2c(Oc3ccc(NC(=O)C4CC4)cc3)ccnc2cc1OCC[C@H](N)C(=O)OC1CCCC1` [Example 59, (S)-2-Amino-4-{4-[4-(cyclopropanecarbonyl-amino)-phenoxy]-6-methoxy-quinolin-7-yloxy}-butyric acid cyclopentyl ester]: the pIC50 in the assay with HCT 116 cell line was 5.30 to 6.00; with U937 cell line, above 6.00; at Aurora-B, below 5.30; with HUT cell line it was 5.30 to 6.00.
Consider `COc1cc2c(Oc3ccc(NC(=O)C4CC4)cc3)ccnc2cc1OCC[C@H](N)C(=O)O` [Example 60, (S)-2-Amino-4-{4-[4-(cyclopropanecarbonyl-amino)-phenoxy]-6-methoxy-quinolin-7-yloxy}-butyric acid], for which the pIC50 on Aurora-A and at Aurora-B was below 5.30 throughout.
`COc1cc2c(Oc3ccc(NC(=O)c4ccccc4F)cc3)ccnc2cc1OCC[C@H](N)C(=O)O` [Example 62, (S)-2-Amino-4-{4-[4-(2-fluoro-benzoylamino)-phenoxy]-6-methoxy-quinolin-7-yloxy}-butyric acid]: the pIC50 is 5.30 to 5.70 on Aurora-A and above 5.70 on Aurora-B.
The matching figures for `COc1cc2c(Oc3ccc(NC(=O)c4ccc(F)cc4)cc3)ccnc2cc1OCC[C@H](N)C(=O)O` [Example 64, (S)-2-Amino-4-{4-[4-(4-fluoro-benzoylamino)-phenoxy]-6-methoxy-quinolin-7-yloxy}-butyric acid]: 5.30 to 5.70 and above 5.70.
In the case of `COc1cc2c(Oc3ccc(C(=O)Nc4ccccc4)cc3)ccnc2cc1OCC[C@H](N)C(=O)OC1CCCC1` [Example 77, (S)-2-Amino-4-[6-methoxy-4-(4-phenylcarbamoyl-phenoxy)-quinolin-7-yloxy]-butyric acid cyclopentyl ester], the pIC50 with HCT 116 cell line was below 5.30; in the assay with U937 cell line, 5.30 to 6.00; at Aurora-B, below 5.30; in the assay on HUT cell line, 5.30 to 6.00.
In the case of `COc1cc2c(Oc3ccc(NC(=O)c4ccccc4)cc3F)ccnc2cc1OCC[C@H](N)C(=O)OC1CCCC1` [Example 128, (S)-2-Amino-4-[4-(4-benzoylamino-2-fluoro-phenoxy)-6-methoxy-quinolin-7-yloxy]-butyric acid cyclopentyl ester], the pIC50 with HCT 116 cell line was above 6.00; in the assay on U937 cell line, above 6.00; on Aurora-B it was 5.30 to 5.70; with HUT cell line, above 6.00.
